According to paper PMC10004634 (PLOS ONE, 2023):
Like-named read-outs stand apart in the source and are kept apart here.

Assays:
Assay in all cases: biochemical
Set-up in all cases: KINOMEscan scanMAX competition binding, DNA-tagged kinases, qPCR read-out, percent control at 300 nM
GAK = target: T1, GAK (Homo sapiens, UniProt O14976)
T1 sequence (O14976 1-1311): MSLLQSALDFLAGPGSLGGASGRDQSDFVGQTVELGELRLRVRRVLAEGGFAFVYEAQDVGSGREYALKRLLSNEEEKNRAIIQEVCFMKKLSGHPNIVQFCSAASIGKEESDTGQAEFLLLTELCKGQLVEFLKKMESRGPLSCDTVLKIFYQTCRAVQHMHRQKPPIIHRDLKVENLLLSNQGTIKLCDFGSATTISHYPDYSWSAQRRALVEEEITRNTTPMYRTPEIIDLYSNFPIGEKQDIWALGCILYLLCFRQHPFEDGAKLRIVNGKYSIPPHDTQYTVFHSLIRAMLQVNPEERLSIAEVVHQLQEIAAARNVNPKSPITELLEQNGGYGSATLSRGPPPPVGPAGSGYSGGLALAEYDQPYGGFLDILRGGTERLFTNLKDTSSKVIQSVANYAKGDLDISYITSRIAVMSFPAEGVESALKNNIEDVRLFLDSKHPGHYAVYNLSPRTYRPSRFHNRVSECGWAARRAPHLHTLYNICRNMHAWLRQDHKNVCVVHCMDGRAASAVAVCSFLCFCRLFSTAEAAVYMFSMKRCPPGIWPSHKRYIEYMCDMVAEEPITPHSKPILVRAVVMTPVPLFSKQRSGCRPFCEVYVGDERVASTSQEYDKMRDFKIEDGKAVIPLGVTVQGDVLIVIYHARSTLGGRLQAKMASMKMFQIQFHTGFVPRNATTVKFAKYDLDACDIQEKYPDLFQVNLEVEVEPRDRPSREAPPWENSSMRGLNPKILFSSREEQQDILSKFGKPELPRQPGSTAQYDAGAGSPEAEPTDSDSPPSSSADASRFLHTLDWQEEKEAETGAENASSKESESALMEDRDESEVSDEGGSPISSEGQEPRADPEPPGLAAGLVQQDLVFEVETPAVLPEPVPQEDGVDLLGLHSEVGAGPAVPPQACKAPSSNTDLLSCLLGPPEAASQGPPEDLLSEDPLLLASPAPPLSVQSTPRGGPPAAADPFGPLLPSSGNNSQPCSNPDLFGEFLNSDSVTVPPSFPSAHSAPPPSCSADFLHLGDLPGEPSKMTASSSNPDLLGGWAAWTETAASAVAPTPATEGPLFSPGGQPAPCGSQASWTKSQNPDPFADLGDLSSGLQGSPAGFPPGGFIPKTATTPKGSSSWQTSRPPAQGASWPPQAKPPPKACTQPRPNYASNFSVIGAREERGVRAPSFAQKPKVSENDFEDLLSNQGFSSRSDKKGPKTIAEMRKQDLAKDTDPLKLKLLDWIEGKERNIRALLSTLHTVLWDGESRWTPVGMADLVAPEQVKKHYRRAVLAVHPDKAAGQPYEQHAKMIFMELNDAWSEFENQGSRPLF

LZK = target: T2, LZK (Homo sapiens, UniProt O43283)
T2 construct: gene MAP3K13
T2 sequence (O43283 1-966): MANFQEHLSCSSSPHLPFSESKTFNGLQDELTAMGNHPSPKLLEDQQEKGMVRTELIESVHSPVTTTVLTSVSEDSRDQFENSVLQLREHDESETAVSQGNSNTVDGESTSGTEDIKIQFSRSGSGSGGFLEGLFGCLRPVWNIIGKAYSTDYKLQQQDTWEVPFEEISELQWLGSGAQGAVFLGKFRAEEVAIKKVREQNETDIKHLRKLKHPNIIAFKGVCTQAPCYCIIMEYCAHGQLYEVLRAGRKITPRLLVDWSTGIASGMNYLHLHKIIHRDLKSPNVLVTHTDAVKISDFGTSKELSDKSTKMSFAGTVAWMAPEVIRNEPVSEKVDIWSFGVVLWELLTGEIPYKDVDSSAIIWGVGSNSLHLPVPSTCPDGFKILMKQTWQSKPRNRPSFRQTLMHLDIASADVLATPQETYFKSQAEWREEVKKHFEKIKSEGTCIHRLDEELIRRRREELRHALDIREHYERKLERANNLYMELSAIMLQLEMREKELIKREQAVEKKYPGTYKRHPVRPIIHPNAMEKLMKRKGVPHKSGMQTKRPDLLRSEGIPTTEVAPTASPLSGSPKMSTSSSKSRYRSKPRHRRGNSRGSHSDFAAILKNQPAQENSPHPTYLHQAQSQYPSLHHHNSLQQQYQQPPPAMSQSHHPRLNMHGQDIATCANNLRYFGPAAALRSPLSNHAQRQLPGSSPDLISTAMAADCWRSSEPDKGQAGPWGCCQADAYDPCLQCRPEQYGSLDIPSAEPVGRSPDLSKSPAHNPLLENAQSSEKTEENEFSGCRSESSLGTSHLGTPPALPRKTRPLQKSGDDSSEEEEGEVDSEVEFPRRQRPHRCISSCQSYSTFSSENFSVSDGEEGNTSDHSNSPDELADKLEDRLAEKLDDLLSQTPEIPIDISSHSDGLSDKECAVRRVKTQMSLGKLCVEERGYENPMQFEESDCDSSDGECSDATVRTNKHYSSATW

ROCK2 = ROCK2 (Homo sapiens, UniProt O75116)
[1] = read-out: Percent control / Acalabrutinib
[2] = read-out: Percent control / Ibrutinib
[3] = read-out: Percent control / Tirabrutinib
[4] = read-out: Percent control / Zanubrutinib

ROCK2, sequence (O75116 whole entry): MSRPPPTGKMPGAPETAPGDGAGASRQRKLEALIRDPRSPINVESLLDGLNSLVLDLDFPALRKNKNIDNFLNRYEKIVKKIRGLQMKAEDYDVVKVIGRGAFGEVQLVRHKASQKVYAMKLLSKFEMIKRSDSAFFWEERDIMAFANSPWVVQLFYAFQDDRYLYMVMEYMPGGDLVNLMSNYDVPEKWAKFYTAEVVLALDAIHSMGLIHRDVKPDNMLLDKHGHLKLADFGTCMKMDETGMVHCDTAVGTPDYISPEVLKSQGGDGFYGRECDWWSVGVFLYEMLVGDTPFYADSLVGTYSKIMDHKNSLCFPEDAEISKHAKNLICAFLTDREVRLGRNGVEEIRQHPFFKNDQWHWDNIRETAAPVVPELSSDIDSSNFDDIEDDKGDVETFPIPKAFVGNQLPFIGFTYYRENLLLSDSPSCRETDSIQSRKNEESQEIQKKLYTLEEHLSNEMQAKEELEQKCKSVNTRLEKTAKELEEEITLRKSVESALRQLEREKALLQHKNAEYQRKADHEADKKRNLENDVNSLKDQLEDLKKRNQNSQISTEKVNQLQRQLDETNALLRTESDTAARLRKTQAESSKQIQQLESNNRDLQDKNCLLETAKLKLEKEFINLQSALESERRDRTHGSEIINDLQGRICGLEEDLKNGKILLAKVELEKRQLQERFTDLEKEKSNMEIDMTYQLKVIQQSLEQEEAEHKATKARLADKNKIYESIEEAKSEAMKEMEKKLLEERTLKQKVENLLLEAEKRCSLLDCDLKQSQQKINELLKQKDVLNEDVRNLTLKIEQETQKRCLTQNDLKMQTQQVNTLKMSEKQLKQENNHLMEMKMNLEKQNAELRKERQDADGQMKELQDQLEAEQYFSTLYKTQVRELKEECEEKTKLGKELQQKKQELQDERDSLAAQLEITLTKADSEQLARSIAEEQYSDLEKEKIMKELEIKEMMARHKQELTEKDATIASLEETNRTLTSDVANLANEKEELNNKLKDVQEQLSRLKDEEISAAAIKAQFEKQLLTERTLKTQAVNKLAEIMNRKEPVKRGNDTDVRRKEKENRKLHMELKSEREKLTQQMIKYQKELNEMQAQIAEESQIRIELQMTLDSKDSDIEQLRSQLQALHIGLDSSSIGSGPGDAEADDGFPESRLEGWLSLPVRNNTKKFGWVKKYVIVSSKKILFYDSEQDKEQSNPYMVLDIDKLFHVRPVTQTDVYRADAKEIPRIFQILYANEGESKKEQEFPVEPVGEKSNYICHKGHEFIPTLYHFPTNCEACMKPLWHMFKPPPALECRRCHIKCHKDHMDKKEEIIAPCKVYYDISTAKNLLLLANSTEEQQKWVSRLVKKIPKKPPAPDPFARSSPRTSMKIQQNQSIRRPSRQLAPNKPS

## CC#CC(=O)N1CCC[C@H]1c1nc(-c2ccc(C(=O)Nc3ccccn3)cc2)c2c(N)nccn12 [Acalabrutinib]
GAK; [1]
  remaining binding at 0.3 µM: 92%
LZK; [1]
  remaining binding at 0.3 µM: 85%
ROCK2; [1]
  remaining binding at 0.3 µM: 94%

## C=CC(=O)N1CCC[C@@H](n2nc(-c3ccc(Oc4ccccc4)cc3)c3c(N)ncnc32)C1 [Ibrutinib]
LZK; [2]
  remaining binding at 0.3 µM: 79%
ROCK2; [2]
  remaining binding at 0.3 µM: 84%

## CC#CC(=O)N1CC[C@@H](n2c(=O)n(-c3ccc(Oc4ccccc4)cc3)c3c(N)ncnc32)C1 [Tirabrutinib]
GAK; [3]
  remaining binding at 0.3 µM: 95%
LZK; [3]
  remaining binding at 0.3 µM: 63%
ROCK2; [3]
  remaining binding at 0.3 µM: 90%

## C=CC(=O)N1CCC([C@@H]2CCNc3c(C(N)=O)c(-c4ccc(Oc5ccccc5)cc4)nn32)CC1 [Zanubrutinib]
GAK; [4]
  remaining binding at 0.3 µM: 87%
LZK; [4]
  remaining binding at 0.3 µM: 93%
ROCK2; [4]
  remaining binding at 0.3 µM: 85%
